From PubChem BioAssay (NCI)
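At the GI50, growth is halved. TGI: concentration producing complete growth inhibition.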

Assays:
Test in all cases: inhibition of tumour cell growth, NCI panel, 384-well format
[1] = system: NCI-H23 lung
[2] = system: HCT-15 colon
[3] = system: HOP-92 NSCLC
[4] = system: MDA-MB-231 breast
[5] = system: K-562 leukemia
[6] = system: NCI/ADR-RES ovarian
[7] = system: UACC-62 melanoma
[8] = system: MCF7 breast
[9] = system: CCRF-CEM leukemia
[10] = system: RPMI-8226 leukemia
[11] = system: HL-60(TB) leukemia
[12] = system: MDA-MB-468 breast
[13] = system: BT-549 breast
[14] = system: SW-620 colon
[15] = system: SNB-19 CNS
[16] = system: RXF 393 renal
[17] = system: 786-0 renal
[18] = system: DU-145 prostate
[19] = system: SK-MEL-28 melanoma
[20] = system: SF-295 CNS
[21] = system: LOX IMVI melanoma
[22] = system: SF-268 CNS
[23] = system: SN12C renal
[24] = system: MALME-3M melanoma
[25] = system: OVCAR-3 ovarian
[26] = system: CAKI-1 renal
[27] = system: OVCAR-5 ovarian
[28] = system: SK-OV-3 ovarian
[29] = system: ACHN renal
[30] = system: A549 NSCLC
[31] = system: SNB-75 CNS
[32] = system: U251 glioblastoma
[33] = system: M14 melanoma
[34] = system: HT29 colon
[35] = system: OVCAR-8 ovarian
[36] = system: NCI-H522 lung
[37] = system: HOP-62 NSCLC
[38] = system: UO-31 renal
[39] = system: SF-539 CNS
[40] = system: T-47D breast
[41] = system: MOLT-4 leukemia
[42] = system: HCT-116 colon
[43] = system: KM12 colon
[44] = system: NCI-H226 lung
[45] = system: NCI-H322M lung
[46] = system: MDA-MB-435 melanoma
[47] = system: UACC-257 melanoma
[48] = system: HS 578T breast
[49] = system: SK-MEL-2 melanoma
[50] = system: SK-MEL-5 melanoma
[51] = system: TK-10 renal
[52] = system: A498 renal
[53] = system: NCI-H460 NSCLC
[54] = system: EKVX NSCLC
[55] = system: HCC-2998 colon
[56] = system: COLO 205 colon
[57] = system: IGROV1 ovarian
[58] = system: OVCAR-4 ovarian
[59] = system: PC-3 prostate

`O=C(O)CCCc1ccc(N(CCCl)CCCl)cc1` was tested, and the GI50 [1] was 19.4 µM, the TGI [1] was 99.8 µM and the GI50 [2] was 23.7 µM. For the same compound, the GI50 [3] was 25.3 µM, the GI50 [4] was 84.7 µM and the GI50 [5] was 41.6 µM. For the same compound, the GI50 [6] was 19.9 µM, the GI50 [7] was 12 µM and the GI50 [8] was 41 µM. For the same compound, the GI50 [9] was 3.29 µM, the TGI [9] was 8.55 µM and the GI50 [10] was 6.45 µM. The TGI [10] was 23.6 µM, the GI50 [11] was 1.64 µM and the TGI [11] was 3.75 µM. The GI50 [12] was 4.37 µM, the TGI [12] was 21.4 µM and the GI50 [13] was 14.1 µM. For the same compound, the GI50 [14] was 16.9 µM, the GI50 [15] was 35.3 µM and the GI50 [16] was 14.7 µM. It also gave a TGI [16] of 29.8 µM, a GI50 [17] of 24.3 µM and a GI50 [18] of 27.3 µM. The TGI [18] was 99.4 µM, the GI50 [19] was 57 µM and the GI50 [20] was 18.3 µM. For the same compound, the TGI [20] was 41.8 µM, the GI50 [21] was 30.4 µM and the GI50 [22] was 9.3 µM. For the same compound, the GI50 [23] was 10.4 µM, the GI50 [24] was 29.9 µM and the GI50 [25] was 28.4 µM. The GI50 [26] was 8.78 µM, the GI50 [27] was 45.7 µM and the GI50 [28] was 41.1 µM. It also gave a GI50 [29] of 8.31 µM, a TGI [29] of 35 µM and a GI50 [30] of 33.3 µM. The GI50 [31] was 19.8 µM, the GI50 [32] was 11.6 µM and the GI50 [33] was 19.5 µM. The GI50 [34] was 51.9 µM, the GI50 [35] was 14.2 µM and the GI50 [36] was 13.3 µM. For the same compound, the TGI [36] was 27.5 µM, the GI50 [37] was 13.6 µM and the TGI [37] was 45.8 µM. It also gave a GI50 [38] of 39.8 µM, a GI50 [39] of 16.7 µM and a TGI [39] of 60 µM. It also gave a GI50 [40] of 36 µM, a GI50 [41] of 1.26 µM and a TGI [41] of 2.52 µM. It also gave a GI50 [42] of 28.4 µM.
Compound `C[C@@H]1Cc2c([nH]c3ccccc23)[C@@H](c2c(F)cc(/C=C/C(=O)O)cc2F)N1CC(C)(C)F` has a GI50 [1] of 15.4 µM, a TGI [1] of 29 µM and a GI50 [2] of 14.3 µM. For the same compound, the TGI [2] was 27.8 µM, the GI50 [3] was 14.5 µM and the TGI [3] was 28 µM. It also gave a GI50 [4] of 17.5 µM, a TGI [4] of 31.6 µM and a GI50 [5] of 15.4 µM. The TGI [5] was 29.3 µM, the GI50 [43] was 16.5 µM and the TGI [43] was 30.5 µM. For the same compound, the GI50 [6] was 16.8 µM, the TGI [6] was 32 µM and the GI50 [7] was 15.7 µM. The TGI [7] was 29.4 µM, the GI50 [44] was 17.4 µM and the TGI [44] was 32.6 µM. It also gave a GI50 [45] of 17.9 µM, a TGI [45] of 38.1 µM and a TGI [8] of 18.9 µM. It also gave a GI50 [46] of 18.4 µM, a TGI [46] of 32.9 µM and a GI50 [9] of 13 µM. For the same compound, the TGI [9] was 25.8 µM, the GI50 [10] was 11.4 µM and the TGI [10] was 23.6 µM. It also gave a GI50 [47] of 17.9 µM, a TGI [47] of 33.4 µM and a GI50 [11] of 17 µM. It also gave a TGI [11] of 30.8 µM, a GI50 [12] of 20.4 µM and a TGI [12] of 40.2 µM. For the same compound, the GI50 [13] was 15.6 µM, the TGI [13] was 29.2 µM and the GI50 [14] was 16 µM. For the same compound, the TGI [14] was 29.7 µM, the GI50 [15] was 15.5 µM and the TGI [15] was 32.2 µM. It also gave a GI50 [48] of 14 µM, a TGI [48] of 27 µM and a GI50 [16] of 18.5 µM. For the same compound, the TGI [16] was 32.6 µM, the GI50 [49] was 19.7 µM and the TGI [49] was 34.2 µM. It also gave a GI50 [17] of 14.1 µM, a TGI [17] of 27.7 µM and a GI50 [50] of 13.9 µM. It also gave a TGI [50] of 27.2 µM, a GI50 [18] of 15.9 µM and a TGI [18] of 35.5 µM. The GI50 [19] was 17.4 µM, the TGI [19] was 31.4 µM and the GI50 [20] was 16.4 µM. It also gave a TGI [20] of 30.5 µM, a GI50 [21] of 17.2 µM and a TGI [21] of 31.2 µM. The GI50 [51] was 17.7 µM, the TGI [51] was 35.2 µM and the GI50 [22] was 16.3 µM. It also gave a TGI [22] of 30.9 µM, a GI50 [23] of 17.3 µM and a TGI [23] of 32.3 µM. The GI50 [52] was 13.7 µM, the TGI [52] was 32.4 µM and the GI50 [24] was 14.5 µM. For the same compound, the TGI [24] was 27.9 µM, the GI50 [25] was 13.3 µM and the TGI [25] was 26.2 µM. The GI50 [53] was 15.3 µM, the TGI [53] was 29 µM and the GI50 [26] was 17.1 µM. The TGI [26] was 32.7 µM, the GI50 [54] was 15.6 µM and the TGI [54] was 31.4 µM. The GI50 [27] was 19.2 µM, the TGI [27] was 34.3 µM and the GI50 [28] was 19.4 µM. It also gave a TGI [28] of 39.2 µM, a GI50 [29] of 17.7 µM and a TGI [29] of 35.2 µM. It also gave a GI50 [55] of 15.3 µM, a TGI [55] of 28.7 µM and a GI50 [30] of 11.6 µM. For the same compound, the TGI [30] was 24.5 µM, the GI50 [31] was 17.5 µM and the TGI [31] was 33.1 µM. The GI50 [32] was 11.9 µM, the TGI [32] was 24.4 µM and the GI50 [33] was 15.7 µM. It also gave a TGI [33] of 29.3 µM, a GI50 [56] of 17.7 µM and a TGI [56] of 39.3 µM. For the same compound, the GI50 [57] was 16.4 µM, the TGI [57] was 31.4 µM and the GI50 [34] was 15.2 µM. The TGI [34] was 28.8 µM, the GI50 [35] was 14.9 µM and the TGI [35] was 28.6 µM. The GI50 [36] was 16.8 µM, the TGI [36] was 30.8 µM and the GI50 [37] was 10.2 µM. It also gave a TGI [37] of 22.1 µM, a GI50 [38] of 13.9 µM and a TGI [38] of 27.1 µM. The GI50 [39] was 15 µM, the TGI [39] was 28.4 µM and the GI50 [58] was 12.8 µM. It also gave a TGI [58] of 33.5 µM, a GI50 [40] of 10.7 µM and a TGI [40] of 32.5 µM. It also gave a GI50 [41] of 11.8 µM, a TGI [41] of 24.1 µM and a GI50 [42] of 14.7 µM. The TGI [42] was 28.3 µM, the GI50 [59] was 13.4 µM and the TGI [59] was 26.6 µM.
